Measurements taken from publication PMC8401404 (Molecules, 2021).
Counter-ions that a name gives are not always drawn. Like-named read-outs stand apart in the source and are kept apart here.

Columns and labels:
calf thymus DNA (ctDNA) = experiment: Fluorimetric titrations with ctDNA; conditions: fluorescence titrations, Scatchard equation, pH 7.0, sodium cacodylate buffer I = 0.05 mol dm-3
Method: The UV/vis spectra were recorded on a Varian Cary 100 Bio spectrophotometer, CD spectra on JASCO J815 spectrophotometer and fluorescence spectra on a Varian Cary Eclipse spectrophotometer.
Spectrophotometric titrations were performed at pH = 7 (I = 0.05 mol dm^−3, sodium cacodylate buffer) by adding portions of polynucleotide solution into the solution of the studied compound for fluorimetric experiments and CD experiments were performed by adding portions of the compound stock solution into the solution of a polynucleotide. In fluorimetric experiments excitation wavelengths of λexc = 350, 370 and 390 nm were used to avoid the inner filter effect caused due by increasing absorbance of the polynucleotide (Figures S3 and S4). Emission was collected in the range λem = 400–600 nm (SI).
aTitration data were processed using Scatchard equation, correlation coefficients were >0.97-
0.99 for all calculated Ks

ctDNA = experiment: Thermal melting experiments; type: binding, calf; conditions: r = [compound]/[polynucleotide] = 0.3, pH 7.0, sodium cacodylate buffer I = 0.05 mol dm^−3; error ±0.5 °C
Description: (§1) The thermal stability of helices is usually affected by the non-covalent binding of small molecules to double-stranded nucleic acids. We determined the ΔTm value (the difference between the Tm value of free polynucleotide and a complex with a small molecule) for complexes of selected compounds with ctDNA and an alternating polynucleotide, poly(dAdT)2. […] Because of this, we determined ΔTm value with non-alternating AT-DNA, poly dA-poly dT as well.

E. coli ATCC 25922 = experiment: Broth microdilution testing (CLSI); type: cell-based, Escherichia coli; conditions: broth microdilution, 16–24h at 37 °C, read-out: MIC E. coli ATCC 25922
Method: (§2) Broth microdilution testing was performed according to CLSI (Clinical Laboratory Standards Institute) guidelines. MIC (minimal inhibitory concentration) value was defined as the last tested concentration of compound at which there is no visible growth of bacteria. […] Clinical and Laboratory Standards Institute (CLSI) guidelines.

HCC827 [1] = experiment: BrdU proliferation assay, 2D cell culture; type: cell-based, human; conditions: HCC827, 2D, BrdU, n = 2, read-out: Proliferation Assay IC50 ± SD
Method: (§3) MTS assay gives us information about the number of living cells, in this case, metabolically active cells, whereas the BrdU proliferation assay gives a measure of the cell population in active division phase. Both assays were performed in 2D and 3D assay formats. For the 2D cell assay format, we used classic two-dimensional in vitro assays and as a 3D assay we used a hanging drop proliferation cell assay as previously described. We explored the activity of compounds on three human lung cancer cell lines, A549, HCC827 and NCI-H358. The compound activity was also tested on human lung fibroblast cell line MRC-5. A two-dimensional in vitro viability assay was performed on the MRC-5 cell line to see if tested compounds are cytotoxic on normal cell lines in low concentrations. […] 7.1.
(§4) Test compounds were synthesized by a research group at the Department of Organic Chemistry, Faculty of Chemical Engineering and Technology, University of Zagreb. […] Compounds were diluted 1:3. We transferred 500 nL (for 2D cell culture) or 400 nL (for 3D cell culture) of the compound from a mother plate to test plate by using Mosquito (TTP labtech). DMSO percentage in test concentrations was 0.5–1.0%. Starting concentration of the test compounds and standard compound doxorubicin was 50 µM (2D cell culture) or 100 µM (3D cell culture).
(§5) Cells were grown in 96-well cell star polystyrene plates. We seeded 10,000 cells/well in wells 4 h prior to the treatment with different compounds concentrations and incubated for 72 h. A cell viability assay was performed according to the manufacturer’s instructions, using CellTiter 96 aqueous solution, MTS kit (Promega, Madison, WI, USA). After 0.5–2 h of cell incubation with MTS in 2D cell culture, the plates were read using PE EnVision absorbance at 490 nm.
(§6) Proliferation assay was performed using Cell Proliferation ELISA, BrdU (Sigma, St. Louis, MO, USA). Briefly, 48 h hours after compound addition, 10 µM of BrdU was added to each well and incubated for the following 24 h. After incubation, a single cell suspension was made for 3D cell culture in the new 96-well plate. Plates were centrifuged and supernatants were removed from each plate (for 2D and 3D cell culture) followed by 60 min incubation at 60 °C. The rest of the proliferation assay was performed according to the manufacturer’s instructions.
(§7) Calculation of IC50 data, curves and QC analysis was performed by using Excel tools and GraphPadPrism software (La Jolla, CA, USA), v. […] QC criteria parameters (Z’, S:B, R2, HillSlope) were checked for every IC50 curve.

NCI-H358 [2] = experiment: BrdU proliferation assay, 2D cell culture; type: cell-based, human; conditions: NCI-H358, 2D, n = 2, read-out: Proliferation Assay IC50 ± SD
Method: as §3, §4, §5, §6, §7

A549 [3] = experiment: BrdU proliferation assay, 2D cell culture; type: cell-based, human; conditions: A549, 2D, BrdU, n = 2, read-out: Proliferation Assay IC50 ± SD
Method: as §3, §4, §5, §6, §7

HCC827 [4] = experiment: BrdU proliferation assay, 3D hanging drop cell culture; type: cell-based, human; conditions: HCC827, 3D, BrdU, n = 2, read-out: Proliferation Assay IC50 ± SD
Method: as §3, §4
(§8) Cells were grown in 96-well Perfecta 3D hanging drop plates 5000 cell/well for 4 days until spheres were formed (and checked under the microscope). After sphere formation cells were treated with compounds followed by 72 h incubation. Cell viability assay was performed according to the manufacturer’s instructions, using CellTiter GLO 3D for 3D cell culture (Promega); cell incubation was 5 min on the shaker followed by 25 min incubation in the dark. Plates were read using PE EnVision luminescence.
as §6, §7

NCI-H358 [5] = experiment: as above; type: cell-based, human; conditions: NCI-H358, 3D, n = 2, read-out: Proliferation Assay IC50 ± SD
Method: as §3, §4, §8, §6, §7

A549 [6] = experiment: as above; type: cell-based, human; conditions: A549, 3D, BrdU, n = 2, read-out: Proliferation Assay IC50 ± SD
Method: as §3, §4, §8, §6, §7

S. aureus ATCC 29213 = experiment: Broth microdilution testing (CLSI); type: cell-based, Staphylococcus aureus; conditions: 16–24h at 37 °C, read-out: MIC S. aureus ATCC 29213
Method: as §2

S. cerevisiae ATCC 7752 = experiment: Broth microdilution testing (CLSI); type: cell-based, Saccharomyces cerevisiae; conditions: broth microdilution, 16–24h at 37 °C, read-out: MIC S. cerevisiae ATCC 7752
Method: as §2

HCC827 [7] = experiment: Cytotoxicity (viability) assay, 3D hanging drop cell culture; conditions: read-out: Cytotoxicity Assay IC50 ± SD, HCC827 3D
Method: as §3, §4, §8, §7

NCI-H358 [8] = experiment: as above; conditions: read-out: Cytotoxicity Assay IC50 ± SD, NCI-H358 3D
Method: as §3, §4, §8, §7

A549 [9] = experiment: as above; conditions: read-out: Cytotoxicity Assay IC50 ± SD, A549 3D
Method: as §3, §4, §8, §7

[10] = test system: poly dA-poly dT (DNA, polymer) A/T; experiment: UV thermal melting at 260 nm; conditions: Na+ (sodium cacodylate, I = 0.05 M), pH 7.0, r = [compound]/[polynucleotide phosphate] = 0.3, error ±0.5, per base
[11] = test system: poly(dAdT)2 (DNA, polymer) AT; experiment: UV thermal melting at 260 nm; conditions: Na+ (sodium cacodylate, I = 0.05 M), pH 7.0, r = [compound]/[polynucleotide phosphate] = 0.3, error ±0.5, per base
[12] = Solubility in water (stock solutions)
HCC827 [13] = experiment: MTS cytotoxicity assay, 2D cell culture; conditions: read-out: Cytotoxicity Assay IC50 ± SD, HCC827 2D
Method: as §3, §4, §5, §7

NCI-H358 [14] = experiment: MTS cytotoxicity assay, 2D cell culture; conditions: read-out: Cytotoxicity Assay IC50 ± SD, NCI-H358 2D
Method: as §3, §4, §5, §7

A549 [15] = experiment: MTS cytotoxicity assay, 2D cell culture; conditions: read-out: Cytotoxicity Assay IC50 ± SD, A549 2D, 72 h, MTS, n = 2
Method: as §3, §4, §5, §7

[16] = MTS cytotoxicity assay, 2D cell culture, normal lung fibroblasts; conditions: human, MRC-5 normal lung fibroblasts, 2D culture
Method: as §3, §4, §5, §7

poly dA-poly dT = experiment: Thermal melting experiments; type: binding; conditions: r = 0.3, pH 7.0, sodium cacodylate buffer I = 0.05 mol dm^−3; error ±0.5 °C
Description: as §1

poly(dAdT)2 = experiment: Thermal melting experiments; type: binding; conditions: r = 0.3, pH 7.0, sodium cacodylate buffer I = 0.05 mol dm^−3; error ±0.5 °C
Description: as §1

[17] = test system: poly(dAdT)2 (DNA, polymer) AT; experiment: CD titration; conditions: Na+ (sodium cacodylate, I = 0.05 M), pH 7.0, 25 °C, polynucleotide 3.0 × 10^-5 M
[18] = test system: human lung fibroblast cell line MRC-5; experiment: MTS cytotoxicity assay, 2D cell culture, normal lung fibroblasts; conditions: read-out: Cytotoxicity Assay IC50 ± SD; MRC-5 2D; MRC-5 normal lung fibroblasts, 2D, 72 h, MTS; n = 2
Method: as §3, §4, §5, §7

[19] = Staphylococcus aureus, ATCC29213, broth microdilution
[20] = Saccharomyces cerevisiae, ATCC7752

Structure (SMILES)	Binding constants (logKs) with ctDNA (calf thymus DNA (ctDNA))	ΔTm ctDNA (ctDNA)	MIC (E. coli ATCC 25922; Escherichia coli, ATCC25922)	IC50 (HCC827 [1]; Homo sapiens)	IC50 (NCI-H358 [2]; Homo sapiens)	IC50 (A549 [3]; Homo sapiens)	IC50 (HCC827 [4]; Homo sapiens)	IC50 (NCI-H358 [5]; Homo sapiens)	IC50 (A549 [6]; Homo sapiens)	MIC (S. aureus ATCC 29213; [19])	MIC (S. cerevisiae ATCC 7752; [20])	IC50 (HCC827 [7]; Homo sapiens, HCC827, 72 h)	IC50 (NCI-H358 [8]; Homo sapiens, NCI-H358, 72 h)	IC50 (A549 [9]; Homo sapiens, A549, 72 h)	solubility [12]	IC50 (HCC827 [13]; Homo sapiens, HCC827, 72 h)	IC50 (NCI-H358 [14]; Homo sapiens, NCI-H358, 72 h)	IC50 (A549 [15]; Homo sapiens, A549, 72 h)	IC50 at 72 h [16]	ΔTm Poly dA-poly dT (poly dA-poly dT)	further results
Cl.Clc1ccc(-c2ccc(-c3nc4ccc(C5=NCCN5)cc4s3)o2)cc1 [Compound 9, 2-[5-(4-Chlorophenyl)furan-2-yl]-6-(4,5-Dihydro-1H-imidazol-2-yl)benzothiazole hydrochloride]	6.1	1.8 °C	> 100 µM	8.69 ± 2.79 µM	5.57 ± 0.81 µM	9.97 ± 5.37 µM	20.3 ± 13.9 µM	6.39 ± 3.29 µM	17 ± 3.53 µM	25 µM	3.13 µM	20 ± 7.92 µM	15.49 ± 0.07 µM	16.8 ± 2.61 µM	1320 µM	5.9 ± 0.58 µM	4.48 ± 0.3 µM	4.39 ± 0.79 µM	6.65 ± 0.18 µM	15.2 °C	ΔTm [10]: 15.2 °C; ΔTm [11]: 4.6 °C; melting point: 293 to 297 °C; ΔTm poly (dAdT)2 (poly(dAdT)2): 4.6 °C; binding [17]: yes
CC(C)NC(=N)c1ccc2nc(-c3ccc(-c4ccc([N+](=O)[O-])cc4)o3)sc2c1 [Compound 5, 2-[5-(4-Nitrophenyl)furan-2-yl]-6-N-isopropilamidinobenzothiazole hydrochloride]	6.4	2.5 °C	> 100 µM	13.7 ± 3.13 µM	3.56 ± 0.18 µM	4.76 ± 1.03 µM	14.7 ± 13.4 µM	14.3 ± 0.84 µM	65.9 ± 3.66 µM	50 µM	12.5 µM	43.6 ± 6.45 µM	14.8 ± 0.57 µM	26.4 ± 13.4 µM	3000 µM	19.3 ± 1.72 µM	9.97 ± 0.59 µM	8.76 ± 1.69 µM	21.7 ± 0.51 µM	5.5 °C	ΔTm poly (dAdT)2 (poly(dAdT)2): 4.8 °C
CC(C)NC(=N)c1ccc2nc(-c3ccc(-c4ccc(Cl)cc4)o3)sc2c1 [Compound 8, 2-[5-(4-Chlorophenyl)furan-2-yl]-6-N-isopropilamidinobenzothiazole hydrochloride]	6.3	1.7 °C	> 100 µM	13.5 ± 0.81 µM	6.68 ± 0.15 µM	8.78 ± 3.62 µM	17.8 ± 4.24 µM	11.3 ± 0.49 µM	19.9 ± 2.19 µM	12.5 µM	6.25 µM	20.5 ± 8.63 µM	16 ± 9.38 µM	9.31 ± 0.78 µM	3000 µM	6.26 ± 0.33 µM	6.48 ± 0.11 µM	6.75 ± 0.19 µM	9.88 ± 2.38 µM	4.3 °C	IC50 (A549 [15]): 6.74 ± 0.19 µM; ΔTm poly (dAdT)2 (poly(dAdT)2): 3.6 °C
N#CC(=Cc1ccc(-c2ccc(Cl)cc2)o1)c1nc2cc([N+](=O)[O-])ccc2[nH]1 [Compound 21, (E,Z)-3-[5-(4-Chlorophenyl)furan-2-yl]-2-(5(6)-nitrobenzimidazol-2-yl)acrylonitrile]	–	–	–	–	–	–	–	–	–	–	–	–	–	–	–	–	–	–	–	–	MIC (E. coli ATCC 25922): >100 µM; IC50 (HCC827 [1]): > 50 µM; IC50 (NCI-H358 [2]): > 50 µM; IC50 (A549 [3]): > 50 µM; IC50 (HCC827 [4]): > 100 µM; IC50 (NCI-H358 [5]): > 100 µM; IC50 (A549 [6]): > 100 µM; MIC (S. aureus ATCC 29213; broth microdilution): >100 µM; MIC (S. cerevisiae ATCC 7752): >100 µM; IC50 (HCC827 [7]; HCC827, 3D hanging drop spheres, 72 h, n = 2): > 100 µM; IC50 (NCI-H358 [8]; NCI-H358, 3D hanging drop spheres, 72 h, n = 2): > 100 µM; IC50 (A549 [9]; A549, 3D hanging drop spheres, 72 h, n = 2): > 100 µM; IC50 (HCC827 [13]; 72 h, MTS, n = 2): > 50 µM; IC50 (NCI-H358 [14]; 72 h, MTS, n = 2): 3.58 ± 0.95 µM; IC50 (A549 [15]): > 50 µM; IC50 [18]: > 50 µM
CC(C)NC(=N)c1ccc2nc(-c3ccc(-c4ccc(Cl)cc4)o3)sc2c1	–	–	–	–	–	–	–	–	–	–	–	–	–	–	–	–	–	–	–	–	ΔTm [10]: 4.3 °C; ΔTm [11]: 3.6 °C; binding [17]: yes
